From ChEMBL document CHEMBL1671721, “Chemical validation of phosphodiesterase C as a chemotherapeutic target in Trypanosoma cruzi, the etiological agent of Chagas' disease” (Antimicrob Agents Chemother, 2010)
Calls of active or inactive are those of the source. No cut-off for these calls is given here.

Legend:
Trypanosoma cruzi [1] = assay: Antimicrobial activity against Trypanosoma cruzi Y infected in L6E9 myoblasts assessed as inhibition of [3H]uracil incorporation at 1 uM after 3 hrs postinfection by scintillation counter; assay type: functional; parameters: scale not given: the % may be the effect or the level left
Trypanosoma cruzi [2] = assay: Antimicrobial activity against Trypanosoma cruzi Y infected in L6E9 myoblasts assessed as inhibition of [3H]uracil incorporation at 25 uM after 3 hrs postinfection by scintillation counter; assay type: functional; parameters: scale not given: the % may be the effect or the level left
[3] = target: T1, Cyclic nucleotide specific phosphodiesterase (Trypanosoma cruzi, UniProt Q53I59); assay: Inhibition of Trypanosoma cruzi Y PDEC after 30 mins
T1 sequence (Q53I59 whole entry): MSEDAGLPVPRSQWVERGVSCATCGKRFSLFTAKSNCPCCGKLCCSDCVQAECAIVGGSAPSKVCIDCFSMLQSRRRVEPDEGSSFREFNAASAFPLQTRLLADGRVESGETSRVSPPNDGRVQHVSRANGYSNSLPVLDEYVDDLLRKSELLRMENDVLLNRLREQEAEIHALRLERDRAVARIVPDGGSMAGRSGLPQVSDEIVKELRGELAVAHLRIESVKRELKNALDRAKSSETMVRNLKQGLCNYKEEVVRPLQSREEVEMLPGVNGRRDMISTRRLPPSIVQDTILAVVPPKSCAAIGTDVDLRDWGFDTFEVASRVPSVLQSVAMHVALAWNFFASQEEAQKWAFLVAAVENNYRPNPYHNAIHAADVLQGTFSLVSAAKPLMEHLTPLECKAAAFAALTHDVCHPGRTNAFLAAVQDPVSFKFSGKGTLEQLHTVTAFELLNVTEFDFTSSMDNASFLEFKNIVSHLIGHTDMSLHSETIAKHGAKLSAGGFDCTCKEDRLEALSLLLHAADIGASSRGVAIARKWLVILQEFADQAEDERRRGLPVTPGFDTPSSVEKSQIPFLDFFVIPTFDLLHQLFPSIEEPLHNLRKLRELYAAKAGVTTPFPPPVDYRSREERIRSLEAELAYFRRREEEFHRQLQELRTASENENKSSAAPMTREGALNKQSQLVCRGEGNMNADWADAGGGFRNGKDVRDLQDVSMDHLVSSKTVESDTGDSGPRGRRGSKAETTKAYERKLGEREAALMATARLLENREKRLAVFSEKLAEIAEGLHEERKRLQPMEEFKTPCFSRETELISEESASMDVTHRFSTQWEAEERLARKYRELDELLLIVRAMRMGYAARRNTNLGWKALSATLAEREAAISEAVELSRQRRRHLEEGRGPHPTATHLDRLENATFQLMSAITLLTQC

Trypanosoma cruzi [4] = assay: Antimicrobial activity against Trypanosoma cruzi Y infected in rat L6E9 myoblasts assessed as inhibition of [5,6-3H]uracil incorporation after 3 days postinfection by scintillation counter; assay type: functional, organism-based
[5] = Cytotoxicity against rat L6E9 myoblasts at 1 to 25 uM
Phosphodiesterase 4 = Phosphodiesterase 4 (Homo sapiens, UniProt P27815+Q08499+Q07343+Q08493); assay: Inhibition of human PDE4 after 30 mins; assay type: protein assay
[6] = target: T2, Cyclic nucleotide specific phosphodiesterase (Trypanosoma cruzi) (UniProt Q53I59); assay: Inhibition of Trypanosoma cruzi Y PDEC assessed as cAMP accumulation at 43 uM after 1 to 5 mins by luminescence spectrophotometry
T2 sequence (whole entry): T1 sequence (Q53I59 whole entry)

[7] = target: T2, Cyclic nucleotide specific phosphodiesterase (Trypanosoma cruzi); assay: Inhibition of Trypanosoma cruzi Y PDEC assessed as cAMP accumulation at 90 uM after 1 to 5 mins by luminescence spectrophotometry
[8] = target: T2, Cyclic nucleotide specific phosphodiesterase (Trypanosoma cruzi); assay: Inhibition of Trypanosoma cruzi Y PDEC assessed as cAMP accumulation at 26 uM after 1 to 5 mins by luminescence spectrophotometry
[9] = target: T2, Cyclic nucleotide specific phosphodiesterase (Trypanosoma cruzi); assay: Inhibition of Trypanosoma cruzi Y PDEC assessed as cAMP accumulation at 4.5 to 45 uM after 1 to 5 mins by luminescence spectrophotometry
[10] = target: T2, Cyclic nucleotide specific phosphodiesterase (Trypanosoma cruzi); assay: Inhibition of Trypanosoma cruzi Y PDEC assessed as decrease in osmolarity preincubated with 8.7 uM compound measured after 10 mins by light scattering
[11] = target: T2, Cyclic nucleotide specific phosphodiesterase (Trypanosoma cruzi); assay: Inhibition of Trypanosoma cruzi Y PDEC assessed as volume recovery preincubated with 8.7 uM compound measured after 10 mins by light scattering
Trypanosoma cruzi [12] = assay: Antimicrobial activity against Trypanosoma cruzi infected in rat L6E9 myoblasts assessed as inhibition of [3H]uracil incorporation by giemsa staining; settings: L6E9, 3 h

## O=C1c2ccccc2C(=O)N1Cc1csc(-c2cccs2)n1
Trypanosoma cruzi [1]
  Activity: 51%
Trypanosoma cruzi [2]
  Activity: 98%
[3]
  IC50: 4.1 µM

## CCCC(=O)c1ccc(OC2CCN(C(=O)OC(C)(C)C)CC2)c(OC)c1
Trypanosoma cruzi [4]
  IC50: 3.3 µM
[5]
  Activity: Non-toxic
[3]
  IC50: 6.5 µM
Phosphodiesterase 4
  IC50: 29 µM
[6]
  inhibition: Active
[7]
  inhibition: Active
[8]
  inhibition: Active
[9]
  inhibition: Active
[10]
  inhibition: inactive
[11]
  inhibition: inactive

## CC1CS(=O)(=O)CCN1/N=C/c1ccc([N+](=O)[O-])o1 (stereo not given) [NIFURTIMOX]
Trypanosoma cruzi [12]
  IC50: 2.8 µM

## O=C(Cn1ccnc1[N+](=O)[O-])NCc1ccccc1 [BENZNIDAZOLE]
Trypanosoma cruzi [12]
  IC50: 3.7 µM
